Results from patent US20260021120A1, “METHOD FOR TREATING INFLAMMATORY SKIN DISEASE USING 6-DIAZO-5-OXO-L-NORLEUCINE” (Dermato Bio Inc., priority 2019, published 2026).
Entries after “also recorded” stand apart in the source; their conditions may differ.

Tests used:
NFκB [1] = assay: TNF-α-induced NFκB activation (luciferase activity) in fibroblasts (NIH3T3/NFκB-luc cells); type: cell-based; settings: 25 ng/ml TNF-α co-treated 8 hours, 100 μM DON, 5 μM Bay11-7082, vs TNF-α only-treated group
Experimental: (§1) This example was intended to indirectly confirm the inhibition of chemokine secretion and histone acetylation by confirming the activity of NFκB in skin cells with a dermatitis lesion, and confirming whether the accelerated NFκB activity was inhibited.
(§2) NIH3T3/NFκB-luc cells, which is a cell line capable of confirming the activity of an NFκB transcription factor through luciferase activity were treated with 25 ng/ml of TNF-α to activate an NFκB signal, and as a positive control, 5 μM of a TNF-α inhibitor, Bay11-7082 (Bay), causing an NF-κB signaling inhibitory action was used. NIH3T3/NFκB-luc cells were dispensed at […] in a 96-well plate, and stabilized in an incubator for 24 hours. To confirm the DON efficacy on NFκB, TNF-α and 100 μM DON were co-treated for 8 hours and then lysed, thereby obtaining a cell enzyme solution, and then the cell enzyme solution was reacted with luciferin, and luciferase activity was measured using a luminometer (FIGS. 3 and 4). The difference in the number of cells between treatment groups was corrected with the resulting values of luciferase activity using protein quantification.

NFκB [2] = assay: TNF-α-induced NFκB activation (luciferase activity) in keratinocytes; type: cell-based; settings: 25 ng/ml TNF-α co-treated 8 hours, 100 μM DON, 5 μM Bay11-7082, vs TNF-α only-treated group
Experimental: as §1, §2

[3] = test system: oxazolone-induced atopic dermatitis; assay: Oxazolone-induced atopic dermatitis inhibiting experiment (mouse ear); type: in vivo, female BALB/c mice
Experimental: Using five 8-week-old female BALB/c mice per group, an effect of inhibiting oxazolone-induced atopic dermatitis was tested. In the experiment, dermatitis induced on the car of each mouse was treated with a therapeutic candidate, and it was attempted to confirm an effect depending on an administration route of a therapeutic agent through percutaneous application or subcutaneous injection. First, to induce atopic dermatitis in all groups excluding the negative control, 0.35 mg of 4-ethoxymethylene-2-phenyl-2-oxazolin-5-one (oxazolone, OXA) was mixed with 30 μl of acetone, and sensitization was preceded on each of the both ears with the 1% mixture. The same amount of a solvent without OXA was applied for the negative control (vehicle). From 7 days after the initial application of OXA, OXA (0.5%) was additionally applied every two days to induce dermatitis. For treatment groups, dexamethasone (DEX), tacrolimus (TAC), cyclosporine (CYCL), crisaborole (CRI) and DON were used. For percutaneous application, each time OXA was applied, after 1 hour, each of the therapeutic candidates was treated on both ears, and in the administration test via subcutaneous injection, injection was performed 1 hour after OXA treatment, but intermittently performed every two days. As an excipient used in the subcutaneous injection, filtered distilled water was used, and the control was also administered the same amount of sterile water. Finally, on day 22 after the initial OXA application, the experiment was terminated, and the mice were sacrificed and autopsied, ear tissue was collected, and to confirm the morphological structure of the tissue, H&E staining was performed, and to count the number of the infiltrated mast cells, toluidine blue staining was performed.
FIGS. 14A and 14B were obtained by quantifying the total number of cells and the number of mast cells, which are infiltrated into the dermis, from the staining results. (a) The cell numbers were compared using the total number of infiltrated cells in 200 square micrometers (μm^2), and (b) the mast cells infiltrated into the same area were converted into percentage (%) with respect to the total cell number.

IMQ-induced psoriasis = IMQ-induced psoriasis inhibiting experiment (mouse back); type: in vivo, female C57/BL6 mice; settings: 0.05% DON, 100 μl on back
Experimental: For a psoriasis inhibition experiment using imiquimod (IMQ, Tokyo Chemical Industry, 10747-100 mg), as an experimental animal, female C57/BL6 mice (n=5) were used. First, to induce psoriasis, sensitization was preceded by evenly applying 4 mg IMQ to the completely shaved back of each of the mice in all groups except a negative control at a volume of 100 μl. For the negative control, the same amount of a solvent without IMQ was applied. Psoriasis was induced by applying IMQ a total of five times at 24-hour intervals for 5 days, and for treatment groups, the same site was treated (applied) with 0.05% dexamethasone (DEX) ([…], 100 μl) or 0.05% DON (0.5 mg/ml, 100 μl) dissolved in ethanol one hour after IMQ treatment.
The severity of scaling (FIG. 20) visually evaluated at a lesion site was classified and evaluated by rating, and the severity of the symptom was rated on a 5-point scale (0=none; 1=slight; 2=moderate; 3=marked; and 4=very marked), and plotted on a graph.

TPA-induced inflammation = TPA-induced inflammation inhibiting experiment (mouse ear); type: in vivo, C57BL/6 female mice; settings: for visual skin condition of the ear area: after 5 days of application, compared to a negative control (FIG. 6); for number of mast cells / penetration of mast cells into lesion: toluidine blue staining, 200× image, DEX 3 mg, CRI 0.6 mg, DON 0.1 mg on ears, vs TPA positive control
Experimental: For an experiment of inducing and inhibiting inflammation using 12-O-tetradecanoylphorbol-13-acetate (TPA, Sigma), 14 week-old C57BL/6 female mice were purchased from NARA Biotech (Korea) and used. The purchased mice were acclimated for 7 days, and healthy animals were selected and tested. During the experimental period, the mice were raised while maintaining the environment at a temperature of 21 to 25° C., a relative humidity of 45 to 65% and a lighting time of 12 hours, and freely fed feed and drinking water.
First, the acclimated mice with similar characteristics such as a body weight and size were divided into five experimental groups of 3, and separately raised to confirm an anti-inflammation level. Inflammation was induced by first applying 1.0 ug of TPA to each of both ears of a mouse, and after 1 hour, a therapeutic material was applied, which was continued for 5 days. A mouse to which only acetone (Merck), which is a TPA solvent, was applied was set as a negative control (Vehicle), a mouse to which 1.0 ug of TPA dissolved in acetone was applied was set as a positive control and evaluated, and after TPA was applied, mice to which each of 3 mg of dexamethasone (DEX, Sigma), 0.6 mg of crisaborole (CRI, ChemScene) and 0.1 mg of 6-diazo-5-oxo-L-norleucine (DON, Sigma) was applied were set as experimental groups. After applying each material for 5 days by the above-described method, the weight, ear thickness and ear weight of each mouse were measured, and ear tissue was collected and histologically analyzed by hematoxylin & eosin (H&E) staining and toluidine blue staining.
FIG. 8 is a graph obtained by scoring visually evaluated ear lesions, divided into erythema, scaling and a thickness, and in the graph, the severity of symptoms was rated on a 5-point scale (0=none; 1=slight; 2=moderate; 3=marked; and 4=very marked).
Afterward, to confirm the anti-inflammatory effect of DON, the mouse's ear thickness and ear weight were measured and quantified (FIGS. 9A and 9B), and, based on the histological analysis result obtained by toluidine blue staining capable of confirming mast cells, the number of mast cells was measured by comparing three tissue samples per group using a 200× image (FIG. 9C). […] Therefore, it was confirmed that DON can alleviate pruritus symptoms by inhibiting the histamine secretion not only from epithelial cells but also from mast cells, and can also prevent severe dermatitis caused by secondary infection.

[4] = ear lesion, DON 0.1 mg, 5 days (FIG. 8)

| SMILES | NFκB activity by TNF-α (luciferase activity) (NFκB [1]) | NFκB activity by TNF-α (luciferase activity) (NFκB [2]) | weight (g) of ear tissue ([3]; 0.1% (0.0272 mg), ear, percutaneous application (FIG. 12A)) | thickness (mm) of ear tissue ([3]; 0.1% (0.0272 mg), ear, percutaneous application (FIG. 12B)) | visual symptoms of atopic dermatitis (tissue swelling, eczema, deformation of the ear tissue) ([3]; 0.1% (0.0272 mg), ear, percutaneous application, vs OXA group (FIG. 11)) | number of immune cells introduced into the dermis ([3]; histological analysis, total infiltrated cells in 200 μm^2) | thickness of the epithelium ([3]; oxazolone-induced inflammation, inflammatory lesion treated with DON (FIG. 2)) | number of mast cells / penetration of mast cells into lesion ([3]; toluidine blue staining, dermis of ear, day 22) | changes in the epithelium of skin ([3]; visual and histological analysis) | skin thickness at the lesion (IMQ-induced psoriasis; 5 days (FIG. 21)) | severity of scaling (visual score, 5-point scale) (IMQ-induced psoriasis; 5 days, vs IMQ positive control (FIG. 20)) | thickened skin tissue of the epidermis and dermis (histological analysis) (TPA-induced inflammation; H&E, after 5 days, DON 0.1 mg on ears (FIG. 7)) | thickness of the epithelium (TPA-induced inflammation; TPA-induced inflammation, inflammatory lesion treated with DON (FIG. 1)) | visual skin condition of the ear area (TPA-induced inflammation) | degree of erythema (visual score, 5-point scale) (TPA-induced inflammation; [4]) | degree of scaling (visual score, 5-point scale) (TPA-induced inflammation; [4]) | degree of thickness (visual score, 5-point scale) (TPA-induced inflammation; [4]) | number of mast cells / penetration of mast cells into lesion (TPA-induced inflammation; after 5 days) |
| --- | --- | --- | --- | --- | --- | --- | --- | --- | --- | --- | --- | --- | --- | --- | --- | --- | --- | --- |
| Cc1ccc(S(=O)(=O)/C=C/C#N)cc1 [Bay11-7082, reference compound] | decreased | decreased |  |  |  |  |  |  |  |  |  |  |  |  |  |  |  |  |
| [N-]=[N+]=CC(=O)CC[C@H](N)C(=O)O [DON, 6-diazo-5-oxo-L-norleucine] | reduced; also recorded: inhibited | reduced; also recorded: inhibited | significantly decreased | significantly decreased | significant skin improvement | significantly reduces; also recorded: small | significantly reduced | significantly reduces; also recorded: weakened | significantly reduces | significantly reduced | significantly decreased | becomes thinner | significantly reduced | showed erythema and scaling | significantly reduced | significantly reduced | significantly reduced | significantly decreased; also recorded: weakened |
| N#Cc1ccc(Oc2ccc3c(c2)COB3O)cc1 [CRI, crisaborole, reference compound] |  |  |  |  |  |  |  |  |  |  |  |  |  | showed erythema and scaling |  |  |  | significantly decreased |
